Assay results reported in patent EP1202975B1, “SUBSTITUTED POLYCYCLIC ARYL AND HETEROARYL PYRAZINONES USEFUL FOR SELECTIVE INHIBITION OF THE COAGULATION CASCADE” (Pharmacia Corporation, priority 1999, dated 2000).
Where two headings read alike, the source gives them in different places.

Assays:
TF-VIIa = target: T1, TF-VIIa (Homo sapiens, UniProt P08709); assay: TF-VIIa Assay; assay type: biochemical
T1 construct: 2nM recombinant human factor VIIa; purchased American Diagnostica, Greenwich CT; host or cells: soluble TF made in house in E. coli

Human factor Xa = Human factor Xa (Homo sapiens, UniProt P00742)
[1] = cells without % sign: IC50; read-out: IC50 or % Inhibition TF-VIIa (30 µM)
[2] = read-out: IC50 or % Inhibition TF-VIIa (30 µM); cells without % sign: IC50
[3] = read-out: IC50 or % Inhibition TF-VIIa (30 µM); cells given as a plain number (IC50)
[4] = cells given as a plain number (IC50); read-out: IC50 or % Inhibition TF-VIIa (30 µM)

T1 sequence (P08709 213-466 limits assumed): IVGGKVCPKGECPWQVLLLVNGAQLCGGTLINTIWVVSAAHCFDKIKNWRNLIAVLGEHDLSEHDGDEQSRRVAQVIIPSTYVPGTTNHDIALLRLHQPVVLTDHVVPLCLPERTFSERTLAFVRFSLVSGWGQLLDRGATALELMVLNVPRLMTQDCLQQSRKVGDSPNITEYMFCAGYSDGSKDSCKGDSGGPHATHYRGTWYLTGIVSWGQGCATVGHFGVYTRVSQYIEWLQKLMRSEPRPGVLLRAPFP
T1 sequence (P08709 61-212 limits assumed): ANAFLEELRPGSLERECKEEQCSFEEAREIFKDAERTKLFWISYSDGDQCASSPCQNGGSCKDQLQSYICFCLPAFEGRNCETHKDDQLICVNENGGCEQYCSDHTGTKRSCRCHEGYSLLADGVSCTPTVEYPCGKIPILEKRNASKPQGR
T1 sequence (P13726 33-251 partner limits assumed): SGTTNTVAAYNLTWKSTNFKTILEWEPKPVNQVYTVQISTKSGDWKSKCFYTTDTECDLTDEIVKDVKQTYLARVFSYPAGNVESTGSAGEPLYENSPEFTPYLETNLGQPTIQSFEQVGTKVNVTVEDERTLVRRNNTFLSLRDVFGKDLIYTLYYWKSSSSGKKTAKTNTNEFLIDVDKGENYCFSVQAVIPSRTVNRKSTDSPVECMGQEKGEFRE
Sequence of Human factor Xa (P00742 235-488 limits assumed): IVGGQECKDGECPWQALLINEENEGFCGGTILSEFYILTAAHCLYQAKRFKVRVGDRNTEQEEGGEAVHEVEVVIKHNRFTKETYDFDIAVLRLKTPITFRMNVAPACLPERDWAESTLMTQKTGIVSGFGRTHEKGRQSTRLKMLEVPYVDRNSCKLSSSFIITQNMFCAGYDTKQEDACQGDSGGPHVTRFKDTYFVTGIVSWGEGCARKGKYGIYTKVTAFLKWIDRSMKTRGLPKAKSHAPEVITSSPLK
Sequence of Human factor Xa (P00742 41-179 limits assumed): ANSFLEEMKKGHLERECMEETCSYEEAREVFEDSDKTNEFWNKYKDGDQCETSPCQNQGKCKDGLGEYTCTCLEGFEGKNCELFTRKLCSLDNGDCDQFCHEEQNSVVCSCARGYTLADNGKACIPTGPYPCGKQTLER

Structure (SMILES) | IC50 or % Inhibition Factor Xa (30 µM) (Human factor Xa) | % Inhibition TF-VIIa (100 µM) (TF-VIIa) | % Inhibition Factor Xa (100 µM) (Human factor Xa) | also measured
CN(C)CCNc1nc(Cl)c(-c2cccc(N)c2)n(CC(=O)NCc2ccc(C(=N)N)cc2)c1=O [1543-09] | 12% | – | – | IC50 (TF-VIIa; [1]): 690 nM
N=C(N)c1ccc(CNC(=O)Cn2c(-c3cccc(N)c3)c(Cl)nc(NCCCO)c2=O)cc1 [1543-13] | 12% | – | – | IC50 (TF-VIIa; [1]): 90 nM
N=C(N)c1ccc(CNC(=O)Cn2c(-c3cccc(N)c3)c(Cl)nc(NCCN3CCCCC3)c2=O)cc1 [1543-15] | 41% | – | – | IC50 (TF-VIIa; [2]): 950 nM
CC(CNc1nc(Cl)c(-c2cccc(N)c2)n(CC(=O)NCc2ccc(C(=N)N)cc2)c1=O)N(C)C (stereo not drawn) [1543-19] | 11% | – | – | IC50 (TF-VIIa; [2]): 220 nM
N=C(N)c1ccc(CNC(=O)Cn2c(-c3cccc(N)c3)c(Cl)nc(NCCCCN3CCCC3)c2=O)cc1 [1543-21] | 27% | – | – | IC50 (TF-VIIa; [2]): 290 nM
N=C(N)c1ccc(CNC(=O)Cn2c(-c3cccc(N)c3)c(Cl)nc(NCCCN3CCCC3)c2=O)cc1 [1543-27] | 27% | – | – | IC50 (TF-VIIa; [2]): 380 nM
CCNc1nc(Cl)c(-c2cccc(N)c2)n(CC(=O)NCc2ccc(C(=N)N)cc2F)c1=O [1543-31] | 8% | – | – | IC50 (TF-VIIa; [2]): 40 nM
N=C(N)c1ccc(CNC(=O)Cn2c(-c3cccc(N)c3)c(Cl)nc(NC3CC3)c2=O)c(F)c1 [1543-33] | 14% | – | – | IC50 (TF-VIIa; [2]): 30 nM
N=C(N)c1ccc(CNC(=O)Cn2c(-c3cccc(N)c3)c(Cl)nc(NC3CCCC3)c2=O)c(F)c1 [1543-34] | 20% | – | – | IC50 (TF-VIIa; [2]): 80 nM
CCCNc1nc(Cl)c(-c2cccc(N)c2)n(CC(=O)NCc2ccc(C(=N)N)cc2F)c1=O [1543-35] | 8% | – | – | IC50 (TF-VIIa; [2]): 70 nM
CCCCNc1nc(Cl)c(-c2cccc(N)c2)n(CC(=O)NCc2ccc(C(=N)N)cc2F)c1=O [1543-36] | 15% | – | – | IC50 (TF-VIIa; [2]): 80 nM
CC(C)CNc1nc(Cl)c(-c2cccc(N)c2)n(CC(=O)NCc2ccc(C(=N)N)cc2F)c1=O [1543-38] | 14% | – | – | IC50 (TF-VIIa; [2]): 90 nM
CC(C)Nc1nc(Cl)c(-c2cccc(N)c2)n(CC(=O)NCc2ccc(C(=N)N)cc2F)c1=O [1543-40] | 10% | – | – | IC50 (TF-VIIa; [2]): 40 nM
N=C(N)c1ccc(CNC(=O)Cn2c(Cc3ccccc3)c(Cl)nc(NCCc3ccccc3)c2=O)cc1 [Example 20] | 6%@30 | – | – | IC50 or % Inhibition TF-VIIa (30 µM) (TF-VIIa): 41%@30
N=C(N)NCC#CCNC(=O)Cn1c(-c2ccccc2)cnc(NCCc2ccccc2)c1=O [Example 36] | 0% | – | – | IC50 or % Inhibition TF-VIIa (30 µM) (TF-VIIa): 5%
N=C(N)NC/C=C\CNC(=O)Cn1c(-c2ccccc2)cnc(NCCc2ccccc2)c1=O [Example 37] | 0% | – | – | IC50 (TF-VIIa; [3]): 1800 nM
Nc1n[nH]c2ccc(CNC(=O)Cn3c(-c4ccccc4)cnc(NCCc4ccccc4)c3=O)cc12 [Example 38] | 22% | – | – | IC50 (TF-VIIa; [3]): 900 nM
Nc1n[nH]c2cc(CNC(=O)Cn3c(-c4ccccc4)cnc(NCCc4ccccc4)c3=O)ccc12 [Example 39] | 0% | – | – | IC50 (TF-VIIa; [3]): 1700 nM
N=C(N)c1ccc(CNC(=O)Cn2c(-c3cccc(N)c3)c(Cl)nc(NC3CCC3)c2=O)cc1F [Example 40] | 0% | – | – | IC50 (TF-VIIa; [4]): 60 nM
CC(C)Nc1nc(Cl)c(-c2cccc(N)c2)n(CC(=O)NCc2ccc(C(=N)N)c(F)c2)c1=O [Example 42] | 0% | – | – | IC50 (TF-VIIa; [3]): 500 nM
CC(C)Nc1ncc(-c2cccc(N)c2)n(CC(=O)NCc2ccc(C(=N)N)c(F)c2)c1=O [Example 43] | 0% | – | – | IC50 (TF-VIIa; [3]): 250 nM
CC(C)Nc1nc(Cl)c(-c2cccc([N+](=O)[O-])c2)n(CC(=O)NCc2ccc(C(N)=NO)cc2)c1=O [Example 61] | 0% | – | – | IC50 or % Inhibition TF-VIIa (30 µM) (TF-VIIa): 1%
CC(C)Nc1nc(Cl)c(-c2cccc(N)c2)n(CC(=O)NCCc2ccc(C(=N)N)cc2)c1=O [Example 62] | 10% | – | – | IC50 (TF-VIIa; [3]): 5600 nM
COC(=O)c1cccc(-c2c(Cl)nc(NC(C)C)c(=O)n2CC(=O)NCc2ccc(C(=N)N)cc2)c1 [Example 64] | 19% | – | – | IC50 (TF-VIIa; [4]): 780 nM
CC(C)Nc1nc(Cl)c(-c2cccc(C(=O)O)c2)n(CC(=O)NCc2ccc(C(=N)N)cc2)c1=O [Example 65] | 12% | – | – | IC50 (TF-VIIa; [4]): 360 nM
N=C(N)c1ccc(CNC(=O)Cn2c(-c3ccccc3O)c(Cl)nc(NC3CCC3)c2=O)cc1 [Example 66] | 0% | – | – | IC50 (TF-VIIa; [4]): 340 nM
CC(=O)Nc1cccc(-c2c(Cl)nc(NC(C)C)c(=O)n2CC(=O)NCCc2ccc(C(=N)N)cc2)c1 [Example 68] | 6% | – | – | IC50 or % Inhibition TF-VIIa (30 µM) (TF-VIIa): 32%

Further lines, with some results ahead:

IC50 or % Inhibition Factor Xa (30 µM) (Human factor Xa) | % Inhibition TF-VIIa (100 µM) (TF-VIIa) | % Inhibition Factor Xa (100 µM) (Human factor Xa) | Structure (SMILES) | also measured
– | 0% | 1% | Cc1c(Cl)nc(NCc2ccccc2)c(=O)n1CC(=O)NCCc1ccncc1 [Example E-0001] | –
– | 0% | 0% | Cc1c(Cl)nc(NCCc2ccccc2)c(=O)n1CC(=O)NCCc1ccncc1 [Example E-0002] | –
– | 0% | 0% | Cc1c(Cl)nc(NCCc2cccc(Cl)c2)c(=O)n1CC(=O)NCCc1ccncc1 [Example E-0003] | –
– | 0% | 0% | Cc1c(Cl)nc(NCCc2ccc(Cl)cc2)c(=O)n1CC(=O)NCCc1ccncc1 [Example E-0004] | –
– | 0% | 0% | Cc1c(Cl)nc(NCCc2cccnc2)c(=O)n1CC(=O)NCCc1ccncc1 [Example E-0005] | –
– | 2% | 0% | Cc1c(Cl)nc(NCCc2ccncc2)c(=O)n1CC(=O)NCCc1ccncc1 [Example E-0006] | –
– | 0% | 0% | Cc1c(Cl)nc(NCCN2CCOCC2)c(=O)n1CC(=O)NCCc1ccncc1 [Example E-0007] | –
– | 0% | 0% | Cc1c(Cl)nc(NCc2ccncc2)c(=O)n1CC(=O)NCCc1ccncc1 [Example E-0008] | –
– | 0% | 1% | O=C(Cn1c(-c2ccccc2)c(Cl)nc(NCc2ccccc2)c1=O)NCCc1ccncc1 [Example E-0009] | –
– | 0% | 0% | O=C(Cn1c(-c2ccccc2)c(Cl)nc(NCCc2ccccc2)c1=O)NCCc1ccncc1 [Example E-0010] | –
– | 0% | 0% | O=C(Cn1c(-c2ccccc2)c(Cl)nc(NCCc2cccc(Cl)c2)c1=O)NCCc1ccncc1 [Example E-0011] | –
– | 0% | 0% | O=C(Cn1c(-c2ccccc2)c(Cl)nc(NCCc2ccc(Cl)cc2)c1=O)NCCc1ccncc1 [Example E-0012] | –
– | 0% | 0% | O=C(Cn1c(-c2ccccc2)c(Cl)nc(NCCc2cccnc2)c1=O)NCCc1ccncc1 [Example E-0013] | –
– | 0% | 0% | O=C(Cn1c(-c2ccccc2)c(Cl)nc(NCCc2ccncc2)c1=O)NCCc1ccncc1 [Example E-0014] | –
– | 0% | 0% | O=C(Cn1c(-c2ccccc2)c(Cl)nc(NCCN2CCOCC2)c1=O)NCCc1ccncc1 [Example E-0015] | –
– | 0% | 0% | O=C(Cn1c(-c2ccccc2)c(Cl)nc(NCc2ccncc2)c1=O)NCCc1ccncc1 [Example E-0016] | –
– | 0% | 0% | COc1ccc(-c2c(Cl)nc(NCc3ccccc3)c(=O)n2CC(=O)NCCc2ccncc2)cc1 [Example E-0033] | –
– | 0% | 0% | COc1ccc(-c2c(Cl)nc(NCCc3cccnc3)c(=O)n2CC(=O)NCCc2ccncc2)cc1 [Example E-0037] | –
– | 0% | 0% | COc1ccc(-c2c(Cl)nc(NCCc3ccncc3)c(=O)n2CC(=O)NCCc2ccncc2)cc1 [Example E-0038] | –
– | 0% | 1% | COc1ccc(-c2c(Cl)nc(NCCN3CCOCC3)c(=O)n2CC(=O)NCCc2ccncc2)cc1 [Example E-0039] | –
– | 0% | 0% | COc1ccc(-c2c(Cl)nc(NCc3ccncc3)c(=O)n2CC(=O)NCCc2ccncc2)cc1 [Example E-0040] | –
– | 0% | 0% | O=C(Cn1c(-c2ccc3c(c2)OCO3)c(Cl)nc(NCc2ccccc2)c1=O)NCCc1ccncc1 [Example E-0041] | –
– | 0% | 0% | O=C(Cn1c(-c2ccc3c(c2)OCO3)c(Cl)nc(NCCc2ccccc2)c1=O)NCCc1ccncc1 [Example E-0042] | –
– | 0% | 0% | O=C(Cn1c(-c2ccc3c(c2)OCO3)c(Cl)nc(NCCc2cccc(Cl)c2)c1=O)NCCc1ccncc1 [Example E-0043] | –
– | 0% | 0% | O=C(Cn1c(-c2ccc3c(c2)OCO3)c(Cl)nc(NCCc2ccc(Cl)cc2)c1=O)NCCc1ccncc1 [Example E-0044] | –
– | 0% | 0% | O=C(Cn1c(-c2ccc3c(c2)OCO3)c(Cl)nc(NCCc2cccnc2)c1=O)NCCc1ccncc1 [Example E-0045] | –
– | 0% | 0% | O=C(Cn1c(-c2ccc3c(c2)OCO3)c(Cl)nc(NCCc2ccncc2)c1=O)NCCc1ccncc1 [Example E-0046] | –
